Laboratory results from PubChem BioAssay AID256 (DTP/NCI, 2004).
Where “and” joins values, the source holds several entries; their conditions need not be identical. Equal values may be shown once. Toxic doses and inconclusive results are not listed. Rule for the calls: active = survival T/C of 150% or more; inactive = T/C below 125% in these data.

System: CD2F1 mice, L1210 leukemia ip, survival T/C
Assay: NCI In Vivo Anticancer Drug Screen. Data for tumor model L1210 Leukemia (intraperitoneal) in CD2F1 (CDF1) mice
Conditions: higher = longer survival
Outline: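 Each value reflects a quotient of treated over vehicle control outcomes in mice with a transplanted tumor.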

[1] = endpoint: mean survival time, dose: 100.0 mg/kg/injection, schedule: Q01DX009 (ip), vehicle: saline with Tween-80
[2] = endpoint: mean survival time, dose: 200.0 mg/kg/injection, schedule: Q01DX009 (ip), vehicle: saline with Tween-80
[3] = endpoint: mean survival time, dose: 400.0 mg/kg/injection, schedule: Q01DX009 (ip), vehicle: saline with Tween-80
[4] = endpoint: mean survival time, dose: 100.0 mg/kg/injection, schedule: Q04DX003 (ip), vehicle: saline with Tween-80
[5] = endpoint: mean survival time, dose: 200.0 mg/kg/injection, schedule: Q04DX003 (ip), vehicle: saline with Tween-80
[6] = endpoint: mean survival time, dose: 400.0 mg/kg/injection, schedule: Q04DX003 (ip), vehicle: saline with Tween-80

Measured: T/C

CC1OC(C)(C)OC1C(=O)OCc1ccccc1 (stereo not drawn)
inactive: endpoint: mean survival time, dose: 25.0 mg/kg/injection, schedule: Q01DX009 (ip), vehicle: Klucel (hydroxypropylcellulose) (HPC) 96 % of control | endpoint: mean survival time, dose: 50.0 mg/kg/injection, schedule: Q01DX009 (ip), vehicle: Klucel (hydroxypropylcellulose) (HPC) 93 % of control | endpoint: mean survival time, dose: 100.0 mg/kg/injection, schedule: Q01DX009 (ip), vehicle: Klucel (hydroxypropylcellulose) (HPC) 99 % of control | endpoint: mean survival time, dose: 200.0 mg/kg/injection, schedule: Q01DX009 (ip), vehicle: Klucel (hydroxypropylcellulose) (HPC) 94 % of control | endpoint: mean survival time, dose: 400.0 mg/kg/injection, schedule: Q01DX009 (ip), vehicle: Klucel (hydroxypropylcellulose) (HPC) 99 % of control

COP(=O)(NC(C)=O)OC
inactive: endpoint: mean survival time, dose: 50.0 mg/kg/injection, schedule: Q04DX002 (ip), vehicle: saline 87 % of control | endpoint: mean survival time, dose: 100.0 mg/kg/injection, schedule: Q04DX002 (ip), vehicle: saline 93 % of control | endpoint: mean survival time, dose: 200.0 mg/kg/injection, schedule: Q04DX002 (ip), vehicle: saline 93 % of control | endpoint: mean survival time, dose: 400.0 mg/kg/injection, schedule: Q04DX002 (ip), vehicle: saline 96 % of control

CCCCNC(=S)N(CCCC)CCCC
inactive: [1] 102 % of control | [2] 87 % of control

NC(=O)CNC1=C(N2CC2)C(=O)C(NCC(N)=O)=C(N2CC2)C1=O
active: endpoint: mean survival time, dose: 5.0 mg/kg/injection, schedule: Q01DX009 (ip), vehicle: saline 172 % of control | endpoint: mean survival time, dose: 10.0 mg/kg/injection, schedule: Q01DX009 (ip), vehicle: saline 180 % of control and 192 % of control
inactive: endpoint: mean survival time, dose: 15.0 mg/kg/injection, schedule: Q01DX009 (ip), vehicle: saline 91 % of control

CN1C(=O)C2C(N=C(c3ccccc3)N2O)N(C)C1=O (stereo not drawn)
inactive: endpoint: mean survival time, dose: 12.5 mg/kg/injection, schedule: Q01DX005 (ip), vehicle: other 93 % of control | endpoint: mean survival time, dose: 25.0 mg/kg/injection, schedule: Q01DX005 (ip), vehicle: other 93 % of control | endpoint: mean survival time, dose: 50.0 mg/kg/injection, schedule: Q01DX005 (ip), vehicle: other 90 % of control | endpoint: mean survival time, dose: 100.0 mg/kg/injection, schedule: Q01DX005 (ip), vehicle: other 97 % of control | endpoint: mean survival time, dose: 200.0 mg/kg/injection, schedule: Q01DX005 (ip), vehicle: other 98 % of control

Nc1ccc(N(c2ccccc2)c2ccccc2)cc1
inactive: endpoint: mean survival time, dose: 100.0 mg/kg/injection, schedule: Q04DX002 (ip), vehicle: Klucel (hydroxypropylcellulose) (HPC) 97 % of control | endpoint: mean survival time, dose: 200.0 mg/kg/injection, schedule: Q04DX002 (ip), vehicle: Klucel (hydroxypropylcellulose) (HPC) 86 % of control | endpoint: mean survival time, dose: 400.0 mg/kg/injection, schedule: Q04DX002 (ip), vehicle: Klucel (hydroxypropylcellulose) (HPC) 89 % of control

CCOC(=O)c1ccc(Cl)cc1
inactive: endpoint: mean survival time, dose: 25.0 mg/kg/injection, schedule: Q01DX009 (ip), vehicle: saline with Tween-80 101 % of control | endpoint: mean survival time, dose: 50.0 mg/kg/injection, schedule: Q01DX009 (ip), vehicle: saline with Tween-80 102 % of control | [1] 95 % of control

O=N[O-].O=N[O-].[Co].[NH2-].[NH2-].[NH2-].[NH2-]
inactive: endpoint: mean survival time, dose: 25.0 mg/kg/injection, schedule: Q04DX002 (ip), vehicle: saline with Tween-80 93 % of control | endpoint: mean survival time, dose: 50.0 mg/kg/injection, schedule: Q04DX002 (ip), vehicle: saline with Tween-80 101 % of control | endpoint: mean survival time, dose: 100.0 mg/kg/injection, schedule: Q04DX002 (ip), vehicle: saline with Tween-80 101 % of control

Cc1cc(Br)ccc1[NH-].Cc1cc(Br)ccc1[NH-].[Cl][Pt+2][Cl]
inactive: endpoint: mean survival time, dose: 8.8 mg/kg/injection, schedule: Q04DX003 (ip), vehicle: saline with Tween-80 97 % of control | endpoint: mean survival time, dose: 17.5 mg/kg/injection, schedule: Q04DX003 (ip), vehicle: saline with Tween-80 97 % of control | endpoint: mean survival time, dose: 35.0 mg/kg/injection, schedule: Q04DX003 (ip), vehicle: saline with Tween-80 97 % of control | endpoint: mean survival time, dose: 70.0 mg/kg/injection, schedule: Q04DX003 (ip), vehicle: saline with Tween-80 109 % of control

[CH3][Sn]([CH3])([Cl])[S]CCN
inactive: endpoint: median survival time, dose: 3.12 mg/kg/injection, schedule: Q01DX009 (ip), vehicle: saline 107 % of control | endpoint: median survival time, dose: 6.25 mg/kg/injection, schedule: Q01DX009 (ip), vehicle: saline 101 % of control | endpoint: median survival time, dose: 12.5 mg/kg/injection, schedule: Q01DX009 (ip), vehicle: saline 109 % of control | endpoint: median survival time, dose: 25.0 mg/kg/injection, schedule: Q01DX009 (ip), vehicle: saline 111 % of control | endpoint: median survival time, dose: 50.0 mg/kg/injection, schedule: Q01DX009 (ip), vehicle: saline 114 % of control

O=C(Nc1cccc([N+](=O)[O-])c1)c1ccc(Cl)cc1Cl
inactive: [1] 90 % of control | [2] 92 % of control | [3] 90 % of control

COC1CC2c3ccccc3C1C(C)=[N+]2C (stereo not drawn)
inactive: endpoint: mean survival time, dose: 100.0 mg/kg/injection, schedule: Q04DX003 (ip), vehicle: saline 101 % of control | endpoint: mean survival time, dose: 200.0 mg/kg/injection, schedule: Q04DX003 (ip), vehicle: saline 95 % of control | endpoint: mean survival time, dose: 400.0 mg/kg/injection, schedule: Q04DX003 (ip), vehicle: saline 94 % of control

CCN(CC(C)Cl)c1ccc(NC(=O)c2cc(N3CC3)c([N+](=O)[O-])cc2[N+](=O)[O-])cc1 (stereo not drawn)
inactive: endpoint: mean survival time, dose: 22.0 mg/kg/injection, schedule: Q01DX001 (ip), vehicle: Klucel (hydroxypropylcellulose) (HPC) 97 % of control | endpoint: mean survival time, dose: 44.0 mg/kg/injection, schedule: Q01DX001 (ip), vehicle: Klucel (hydroxypropylcellulose) (HPC) 97 % of control | endpoint: mean survival time, dose: 88.0 mg/kg/injection, schedule: Q01DX001 (ip), vehicle: Klucel (hydroxypropylcellulose) (HPC) 103 % of control

N=C(N)c1ccc(Nc2ccc(C(=N)N)cc2)cc1
inactive: endpoint: mean survival time, dose: 3.0 mg/kg/injection, schedule: Q01DX009 (ip), vehicle: saline 96 % of control and 100 % of control | endpoint: mean survival time, dose: 6.0 mg/kg/injection, schedule: Q01DX009 (ip), vehicle: saline 100 % of control and 101 % of control | endpoint: mean survival time, dose: 12.0 mg/kg/injection, schedule: Q01DX009 (ip), vehicle: saline 93 % of control and 95 % of control | endpoint: mean survival time, dose: 24.0 mg/kg/injection, schedule: Q01DX009 (ip), vehicle: saline 98 % of control

Cc1cc(N=Nc2ccc(S(=O)(=O)[O-])cc2)cc(C(=O)[O-])c1[O-].NC1CCCCC1N.[Na+].[Pt+4]
active: endpoint: median survival time, dose: 3.12 mg/kg/injection, schedule: Q04DX003 (ip), vehicle: saline with Tween-80 180 % of control and 287 % of control | endpoint: median survival time, dose: 6.25 mg/kg/injection, schedule: Q04DX003 (ip), vehicle: saline with Tween-80 265 % of control and 344 % of control | endpoint: median survival time, dose: 12.5 mg/kg/injection, schedule: Q04DX003 (ip), vehicle: saline with Tween-80 244 % of control and 310 % of control
inactive: endpoint: median survival time, dose: 25.0 mg/kg/injection, schedule: Q04DX003 (ip), vehicle: saline with Tween-80 122 % of control

CN(C)N=Nc1ccc(Cl)cc1C(N)=O
inactive: endpoint: mean survival time, dose: 18.8 mg/kg/injection, schedule: Q01DX009 (ip), vehicle: Klucel (hydroxypropylcellulose) (HPC) 93 % of control and 98 % of control | endpoint: mean survival time, dose: 37.5 mg/kg/injection, schedule: Q01DX009 (ip), vehicle: Klucel (hydroxypropylcellulose) (HPC) 91 % of control and 95 % of control | endpoint: mean survival time, dose: 75.0 mg/kg/injection, schedule: Q01DX009 (ip), vehicle: Klucel (hydroxypropylcellulose) (HPC) 91 % of control and 104 % of control | endpoint: mean survival time, dose: 150.0 mg/kg/injection, schedule: Q01DX009 (ip), vehicle: Klucel (hydroxypropylcellulose) (HPC) 114 % of control

c1ccc2c([Si](O[Si](c3cccc4ccccc34)C3CCCCC3)C3CCCCC3)cccc2c1
inactive: [1] 100 % of control | [4] 93 % of control | [2] 91 % of control | [5] 91 % of control | [3] 88 % of control

O=C(c1ccc(-c2ccccc2)cc1)C1(Br)CCCCC1
inactive: [1] 102 % of control | [4] 101 % of control | [2] 96 % of control | [5] 102 % of control | [3] 97 % of control | [6] 98 % of control

Cc1cn(C2CC(O)C(CO)O2)c(=O)nc1NCC12CC3CC(CC(C3)C1)C2 (stereo not drawn)
inactive: endpoint: median survival time, dose: 12.5 mg/kg/injection, schedule: Q01DX005 (ip), vehicle: distilled water + Tween-80 105 % of control | endpoint: median survival time, dose: 25.0 mg/kg/injection, schedule: Q01DX005 (ip), vehicle: distilled water + Tween-80 104 % of control | endpoint: median survival time, dose: 50.0 mg/kg/injection, schedule: Q01DX005 (ip), vehicle: distilled water + Tween-80 102 % of control | endpoint: median survival time, dose: 100.0 mg/kg/injection, schedule: Q01DX005 (ip), vehicle: distilled water + Tween-80 94 % of control

CC(C#N)N(C)C (stereo not drawn)
inactive: endpoint: mean survival time, dose: 10.0 mg/kg/injection, schedule: Q04DX003 (ip), vehicle: saline 97 % of control | endpoint: mean survival time, dose: 20.0 mg/kg/injection, schedule: Q04DX003 (ip), vehicle: saline 104 % of control | endpoint: mean survival time, dose: 40.0 mg/kg/injection, schedule: Q04DX003 (ip), vehicle: saline 97 % of control

O=Cc1cc(Cl)ccc1O
inactive: [1] 108 % of control | [4] 95 % of control | [2] 102 % of control | [5] 95 % of control

C/C(=N/O)c1ccc(O)cc1
inactive: [4] 90 % of control | [5] 100 % of control | [6] 94 % of control
